From the kinase profiling compilation of Christmann-Franck et al. (2016)

Columns and labels:
Assay in all cases: Caliper, Mobility shift assay off-chip
AKT2 (human) = AKT2 (human) (UniProt P31751)
ALK (human) = ALK (human) (UniProt Q9UM73)
AURKB (human) = AURKB (human) (UniProt Q96GD4)
AURKC (human) = AURKC (human) (UniProt Q9UQB9)
BTK (human) = BTK (human) (UniProt Q06187)
CHEK1 (human) = CHEK1 (human) (UniProt O14757)
CSNK1G2 (human) = CSNK1G2 (human) (UniProt P78368)
CSNK1G3 (human) = CSNK1G3 (human) (UniProt Q9Y6M4)
EPHA8 (human) = EPHA8 (human) (UniProt P29322)
FGFR4 (human) = FGFR4 (human) (UniProt P22455)
FRK (human) = FRK (human) (UniProt P42685)
HIPK1 (human) = HIPK1 (human) (UniProt Q86Z02)
IRAK4 (human) = IRAK4 (human) (UniProt Q9NWZ3)
KDR (human) = KDR (human) (UniProt P35968)
LCK (human) = LCK (human) (UniProt P06239)
MAPK12 (human) = MAPK12 (human) (UniProt P53778)
MAPK13 (human) = MAPK13 (human) (UniProt O15264)
MELK (human) = MELK (human) (UniProt Q14680)
PAK2 (human) = PAK2 (human) (UniProt Q13177)
PHKG2 (human) = PHKG2 (human) (UniProt P15735)
PIM2 (human) = PIM2 (human) (UniProt Q9P1W9)
PRKCD (human) = PRKCD (human) (UniProt Q05655)
PRKCG (human) = PRKCG (human) (UniProt P05129)
PRKCQ (human) = PRKCQ (human) (UniProt Q04759)
PRKCZ (human) = PRKCZ (human) (UniProt Q05513)
[1] = system: RET (human), P07949 [Y791F]
RPS6KA1 KD1 KD2 (human) = RPS6KA1 KD1 KD2 (human) (UniProt Q15418)
RPS6KA2 KD1 KD2 (human) = RPS6KA2 KD1 KD2 (human) (UniProt Q15349)
RPS6KA3 KD1 KD2 (human) = RPS6KA3 KD1 KD2 (human) (UniProt P51812)
RPS6KA5 KD1 KD2 (human) = RPS6KA5 KD1 KD2 (human) (UniProt O75582)
SGK2 (human) = SGK2 (human) (UniProt Q9HBY8)
SRC (human) = SRC (human) (UniProt P12931)
STK3 (human) = STK3 (human) (UniProt Q13188)

Sequence of FGFR4 (human) (P22455 whole entry, looked up): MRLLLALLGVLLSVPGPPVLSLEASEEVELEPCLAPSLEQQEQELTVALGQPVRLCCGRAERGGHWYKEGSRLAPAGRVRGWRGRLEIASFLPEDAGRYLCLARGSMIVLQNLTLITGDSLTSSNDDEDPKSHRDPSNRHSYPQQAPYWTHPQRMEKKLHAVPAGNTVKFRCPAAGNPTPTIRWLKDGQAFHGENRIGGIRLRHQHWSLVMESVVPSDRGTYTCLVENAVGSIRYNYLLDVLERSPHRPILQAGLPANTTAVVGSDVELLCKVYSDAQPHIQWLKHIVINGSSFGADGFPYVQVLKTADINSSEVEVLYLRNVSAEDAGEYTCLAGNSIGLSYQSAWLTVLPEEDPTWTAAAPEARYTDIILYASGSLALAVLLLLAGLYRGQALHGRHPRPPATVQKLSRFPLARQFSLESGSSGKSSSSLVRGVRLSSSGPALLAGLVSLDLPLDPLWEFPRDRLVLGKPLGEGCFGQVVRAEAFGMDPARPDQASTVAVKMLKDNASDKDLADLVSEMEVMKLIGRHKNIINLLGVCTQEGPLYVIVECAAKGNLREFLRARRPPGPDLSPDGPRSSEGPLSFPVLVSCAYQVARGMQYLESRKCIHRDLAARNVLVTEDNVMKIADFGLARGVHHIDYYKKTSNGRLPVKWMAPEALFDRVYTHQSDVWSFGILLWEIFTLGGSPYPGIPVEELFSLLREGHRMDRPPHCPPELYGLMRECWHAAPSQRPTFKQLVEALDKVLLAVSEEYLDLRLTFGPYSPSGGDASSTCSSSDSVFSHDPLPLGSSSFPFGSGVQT
Sequence of MELK (human) (Q14680 whole entry, looked up): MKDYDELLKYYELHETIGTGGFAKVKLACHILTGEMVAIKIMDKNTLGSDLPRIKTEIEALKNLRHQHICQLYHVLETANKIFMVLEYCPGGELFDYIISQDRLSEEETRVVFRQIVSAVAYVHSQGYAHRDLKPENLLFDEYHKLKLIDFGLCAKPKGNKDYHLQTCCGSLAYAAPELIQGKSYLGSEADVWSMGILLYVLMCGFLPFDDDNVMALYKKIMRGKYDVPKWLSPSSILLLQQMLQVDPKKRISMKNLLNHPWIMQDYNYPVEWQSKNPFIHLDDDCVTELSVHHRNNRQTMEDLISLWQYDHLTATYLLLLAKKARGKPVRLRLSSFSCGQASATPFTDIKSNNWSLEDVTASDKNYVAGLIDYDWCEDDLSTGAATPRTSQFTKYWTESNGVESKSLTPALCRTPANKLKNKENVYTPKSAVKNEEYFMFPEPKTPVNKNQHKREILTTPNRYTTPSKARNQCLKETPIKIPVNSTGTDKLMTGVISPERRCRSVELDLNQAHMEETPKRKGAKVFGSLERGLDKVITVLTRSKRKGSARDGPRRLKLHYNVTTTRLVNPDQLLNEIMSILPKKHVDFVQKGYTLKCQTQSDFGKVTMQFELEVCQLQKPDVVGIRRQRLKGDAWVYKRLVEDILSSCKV
Sequence of CSNK1G3 (human) (Q9Y6M4 whole entry, looked up): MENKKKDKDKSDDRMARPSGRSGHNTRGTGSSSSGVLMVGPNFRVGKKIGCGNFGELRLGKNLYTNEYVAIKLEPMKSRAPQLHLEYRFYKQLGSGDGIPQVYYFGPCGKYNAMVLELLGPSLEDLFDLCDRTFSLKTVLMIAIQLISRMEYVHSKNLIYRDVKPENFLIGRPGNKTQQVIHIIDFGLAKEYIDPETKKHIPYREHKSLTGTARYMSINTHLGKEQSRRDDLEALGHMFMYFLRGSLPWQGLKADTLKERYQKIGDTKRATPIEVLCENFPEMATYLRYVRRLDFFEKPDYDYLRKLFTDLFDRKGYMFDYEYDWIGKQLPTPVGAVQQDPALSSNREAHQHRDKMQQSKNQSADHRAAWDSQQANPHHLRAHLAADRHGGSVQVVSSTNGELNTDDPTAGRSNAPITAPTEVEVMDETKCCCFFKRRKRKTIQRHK
Sequence of EPHA8 (human) (P29322 whole entry, looked up): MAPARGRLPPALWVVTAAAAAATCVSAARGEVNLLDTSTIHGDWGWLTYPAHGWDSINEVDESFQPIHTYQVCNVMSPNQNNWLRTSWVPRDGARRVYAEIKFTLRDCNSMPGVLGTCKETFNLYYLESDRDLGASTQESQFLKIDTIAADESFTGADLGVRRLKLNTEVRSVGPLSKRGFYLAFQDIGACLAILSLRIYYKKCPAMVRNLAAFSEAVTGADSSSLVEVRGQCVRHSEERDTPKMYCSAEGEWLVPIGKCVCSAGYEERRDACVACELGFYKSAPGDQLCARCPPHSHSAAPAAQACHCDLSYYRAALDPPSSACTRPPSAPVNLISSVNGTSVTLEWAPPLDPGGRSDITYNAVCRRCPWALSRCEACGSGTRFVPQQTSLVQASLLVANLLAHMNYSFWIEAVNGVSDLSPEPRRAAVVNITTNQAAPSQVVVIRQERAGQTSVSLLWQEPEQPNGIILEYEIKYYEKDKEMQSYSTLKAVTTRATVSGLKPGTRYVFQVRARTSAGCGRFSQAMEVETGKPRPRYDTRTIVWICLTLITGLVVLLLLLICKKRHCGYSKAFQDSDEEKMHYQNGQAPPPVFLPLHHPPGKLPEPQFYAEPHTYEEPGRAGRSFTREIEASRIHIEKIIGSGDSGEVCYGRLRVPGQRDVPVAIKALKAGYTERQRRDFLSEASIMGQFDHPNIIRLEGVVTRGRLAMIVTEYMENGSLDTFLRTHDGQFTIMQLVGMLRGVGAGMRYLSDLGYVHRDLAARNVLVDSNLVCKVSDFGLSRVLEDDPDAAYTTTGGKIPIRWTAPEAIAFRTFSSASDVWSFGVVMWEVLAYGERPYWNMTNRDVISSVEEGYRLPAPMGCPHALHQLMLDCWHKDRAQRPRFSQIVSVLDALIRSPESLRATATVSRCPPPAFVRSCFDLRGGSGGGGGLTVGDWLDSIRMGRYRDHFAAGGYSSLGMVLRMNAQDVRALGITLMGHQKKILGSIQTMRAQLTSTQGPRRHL
Sequence of SGK2 (human) (Q9HBY8 whole entry, looked up): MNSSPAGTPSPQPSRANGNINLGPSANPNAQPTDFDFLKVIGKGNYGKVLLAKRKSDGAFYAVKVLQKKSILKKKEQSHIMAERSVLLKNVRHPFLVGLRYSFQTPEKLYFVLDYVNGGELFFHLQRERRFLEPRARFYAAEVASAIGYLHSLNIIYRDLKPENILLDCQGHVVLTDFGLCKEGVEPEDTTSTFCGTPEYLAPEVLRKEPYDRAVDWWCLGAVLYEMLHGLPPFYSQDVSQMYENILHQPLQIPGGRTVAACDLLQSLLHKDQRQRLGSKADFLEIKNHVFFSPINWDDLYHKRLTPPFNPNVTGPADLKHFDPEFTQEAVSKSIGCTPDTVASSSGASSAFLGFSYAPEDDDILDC
Sequence of AURKB (human) (Q96GD4 whole entry, looked up): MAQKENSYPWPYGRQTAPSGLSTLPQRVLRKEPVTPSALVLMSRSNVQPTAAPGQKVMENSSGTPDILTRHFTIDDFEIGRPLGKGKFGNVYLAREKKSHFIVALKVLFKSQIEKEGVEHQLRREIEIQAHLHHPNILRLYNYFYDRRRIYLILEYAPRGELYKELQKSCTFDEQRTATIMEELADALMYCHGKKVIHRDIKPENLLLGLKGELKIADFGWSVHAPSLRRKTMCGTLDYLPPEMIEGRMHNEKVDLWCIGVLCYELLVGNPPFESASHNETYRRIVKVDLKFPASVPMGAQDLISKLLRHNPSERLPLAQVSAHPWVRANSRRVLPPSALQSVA
Sequence of IRAK4 (human) (Q9NWZ3 whole entry, looked up): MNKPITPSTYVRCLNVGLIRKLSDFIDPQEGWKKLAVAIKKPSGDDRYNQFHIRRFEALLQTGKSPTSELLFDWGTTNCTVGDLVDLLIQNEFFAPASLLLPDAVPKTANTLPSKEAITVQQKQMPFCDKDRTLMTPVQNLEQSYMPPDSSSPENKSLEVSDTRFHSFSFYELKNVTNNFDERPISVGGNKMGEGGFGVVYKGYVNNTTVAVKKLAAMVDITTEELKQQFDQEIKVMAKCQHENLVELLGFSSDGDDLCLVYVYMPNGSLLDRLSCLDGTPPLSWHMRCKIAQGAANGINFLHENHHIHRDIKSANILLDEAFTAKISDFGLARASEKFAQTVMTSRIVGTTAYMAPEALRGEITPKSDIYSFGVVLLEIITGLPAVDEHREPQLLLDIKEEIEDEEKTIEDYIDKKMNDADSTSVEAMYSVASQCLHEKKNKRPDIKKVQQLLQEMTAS

SMILES: Cn1cc(-c2cnc3ccc4ccc(CS(=O)(=O)NC5CCCCC5)cc4c(=O)c3c2)cn1
- inhibition (AKT2 (human); compound 0.01 µM): -1.3%
- inhibition (AKT2 (human); compound 0.1 µM): 2%
- inhibition (ALK (human); compound 0.01 µM): 17.8%
- inhibition (ALK (human); compound 0.1 µM): -2%
- inhibition (AURKB (human); compound 0.01 µM): -0.1%
- inhibition (AURKB (human); compound 0.1 µM): 11.7%
- inhibition (AURKC (human); compound 0.01 µM): -1.6%
- inhibition (AURKC (human); compound 0.1 µM): 15.4%
- inhibition (BTK (human); compound 0.01 µM): 8.4%
- inhibition (BTK (human); compound 0.1 µM): 5.5%
- inhibition (CHEK1 (human); compound 0.01 µM): 4.3%
- inhibition (CHEK1 (human); compound 0.1 µM): 1.3%
- inhibition (CSNK1G2 (human); compound 0.01 µM): 4.3%
- inhibition (CSNK1G2 (human); compound 0.1 µM): 1.3%
- inhibition (CSNK1G3 (human); compound 0.01 µM): 0.7%
- inhibition (CSNK1G3 (human); compound 0.1 µM): -0.7%
- inhibition (EPHA8 (human); compound 0.01 µM): 15.6%
- inhibition (EPHA8 (human); compound 0.1 µM): 0.3%
- inhibition (FGFR4 (human); compound 0.01 µM): -3%
- inhibition (FGFR4 (human); compound 0.1 µM): 9.7%
- inhibition (FRK (human); compound 0.01 µM): 0.2%
- inhibition (FRK (human); compound 0.1 µM): 3.2%
- inhibition (HIPK1 (human); compound 0.01 µM): 1.9%
- inhibition (HIPK1 (human); compound 0.1 µM): 4.6%
- inhibition (IRAK4 (human); compound 0.01 µM): -10%
- inhibition (IRAK4 (human); compound 0.1 µM): 6.7%
- inhibition (KDR (human); compound 0.01 µM): 3.5%
- inhibition (KDR (human); compound 0.1 µM): -10%
- inhibition (LCK (human); compound 0.01 µM): 8.2%
- inhibition (LCK (human); compound 0.1 µM): 7.3%
- inhibition (MAPK12 (human); compound 0.01 µM): 2%
- inhibition (MAPK12 (human); compound 0.1 µM): 5.1%
- inhibition (MAPK13 (human); compound 0.01 µM): -5.2%
- inhibition (MAPK13 (human); compound 0.1 µM): -3%
- inhibition (MELK (human); compound 0.01 µM): 1.7%
- inhibition (MELK (human); compound 0.1 µM): -0.5%
- inhibition (PAK2 (human); compound 0.01 µM): 4.4%
- inhibition (PAK2 (human); compound 0.1 µM): 4.9%
- inhibition (PHKG2 (human); compound 0.01 µM): 3.4%
- inhibition (PHKG2 (human); compound 0.1 µM): 13.3%
- inhibition (PIM2 (human); compound 0.01 µM): -11%
- inhibition (PIM2 (human); compound 0.1 µM): 4.3%
- inhibition (PRKCD (human); compound 0.01 µM): -8.7%
- inhibition (PRKCD (human); compound 0.1 µM): 8.3%
- inhibition (PRKCG (human); compound 0.01 µM): 2.4%
- inhibition (PRKCG (human); compound 0.1 µM): 2.1%
- inhibition (PRKCQ (human); compound 0.01 µM): -6.4%
- inhibition (PRKCQ (human); compound 0.1 µM): -1.3%
- inhibition (PRKCZ (human); compound 0.01 µM): 1.8%
- inhibition (PRKCZ (human); compound 0.1 µM): 3.6%
- inhibition ([1]; compound 0.01 µM): 14.9%
- inhibition ([1]; compound 0.1 µM): 1%
- inhibition (RPS6KA1 KD1 KD2 (human); compound 0.01 µM): 1.3%
- inhibition (RPS6KA1 KD1 KD2 (human); compound 0.1 µM): 3.4%
- inhibition (RPS6KA2 KD1 KD2 (human); compound 0.01 µM): 6.7%
- inhibition (RPS6KA2 KD1 KD2 (human); compound 0.1 µM): 10.4%
- inhibition (RPS6KA3 KD1 KD2 (human); compound 0.01 µM): -3.6%
- inhibition (RPS6KA3 KD1 KD2 (human); compound 0.1 µM): -3.8%
- inhibition (RPS6KA5 KD1 KD2 (human); compound 0.01 µM): 3.4%
- inhibition (RPS6KA5 KD1 KD2 (human); compound 0.1 µM): -4.2%
- inhibition (SGK2 (human); compound 0.01 µM): -1.3%
- inhibition (SGK2 (human); compound 0.1 µM): -0.1%
- inhibition (SRC (human); compound 0.01 µM): 2.2%
- inhibition (SRC (human); compound 0.1 µM): -1.4%
- inhibition (STK3 (human); compound 0.01 µM): 7.9%
- inhibition (STK3 (human); compound 0.1 µM): 17.7%

SMILES: O=C(CCc1ccc2ccc3ncc(C4CCNCC4)cc3c(=O)c2c1)NCc1ccccn1
- inhibition (AKT2 (human); compound 0.1 µM): -1.5%
- inhibition (AKT2 (human); compound 1.0 µM): 3.1%
- inhibition (ALK (human); compound 0.1 µM): 6.9%
- inhibition (ALK (human); compound 1.0 µM): -9.5%
- inhibition (AURKB (human); compound 0.1 µM): 8%
- inhibition (AURKB (human); compound 1.0 µM): 27.6%
- inhibition (AURKC (human); compound 0.1 µM): 7.5%
- inhibition (AURKC (human); compound 1.0 µM): 18.6%
- inhibition (BTK (human); compound 0.1 µM): 2.1%
- inhibition (BTK (human); compound 1.0 µM): 1.1%
- inhibition (CHEK1 (human); compound 0.1 µM): -0.6%
- inhibition (CHEK1 (human); compound 1.0 µM): 2.9%
- inhibition (CSNK1G2 (human); compound 0.1 µM): 2.7%
- inhibition (CSNK1G2 (human); compound 1.0 µM): 5.8%
- inhibition (CSNK1G3 (human); compound 0.1 µM): 0.3%
- inhibition (CSNK1G3 (human); compound 1.0 µM): 15.2%
- inhibition (EPHA8 (human); compound 0.1 µM): 9.4%
- inhibition (EPHA8 (human); compound 1.0 µM): 5.1%
- inhibition (FGFR4 (human); compound 0.1 µM): -3%
- inhibition (FGFR4 (human); compound 1.0 µM): -3.3%
- inhibition (FRK (human); compound 0.1 µM): 7.1%
- inhibition (FRK (human); compound 1.0 µM): 6.2%
- inhibition (HIPK1 (human); compound 0.1 µM): 7.2%
- inhibition (HIPK1 (human); compound 1.0 µM): -0.1%
- inhibition (IRAK4 (human); compound 0.1 µM): -10.2%
- inhibition (IRAK4 (human); compound 1.0 µM): 0.3%
- inhibition (KDR (human); compound 0.1 µM): 4.9%
- inhibition (KDR (human); compound 1.0 µM): 16.8%
- inhibition (LCK (human); compound 0.1 µM): -3.4%
- inhibition (LCK (human); compound 1.0 µM): -2.9%
- inhibition (MAPK12 (human); compound 0.1 µM): 6.1%
- inhibition (MAPK12 (human); compound 1.0 µM): 8.3%
- inhibition (MAPK13 (human); compound 0.1 µM): -1.8%
- inhibition (MAPK13 (human); compound 1.0 µM): 3.9%
- inhibition (MELK (human); compound 0.1 µM): 2.7%
- inhibition (MELK (human); compound 1.0 µM): 5.7%
- inhibition (PAK2 (human); compound 0.1 µM): 2.1%
- inhibition (PAK2 (human); compound 1.0 µM): 13.1%
- inhibition (PHKG2 (human); compound 0.1 µM): 1%
- inhibition (PHKG2 (human); compound 1.0 µM): -4.4%
- inhibition (PIM2 (human); compound 0.1 µM): -0.1%
- inhibition (PIM2 (human); compound 1.0 µM): -3.2%
- inhibition (PRKCD (human); compound 0.1 µM): 0.7%
- inhibition (PRKCD (human); compound 1.0 µM): -5.4%
- inhibition (PRKCG (human); compound 0.1 µM): 10.9%
- inhibition (PRKCG (human); compound 1.0 µM): -15%
- inhibition (PRKCQ (human); compound 0.1 µM): 3.3%
- inhibition (PRKCQ (human); compound 1.0 µM): 0.5%
- inhibition (PRKCZ (human); compound 0.1 µM): 0.7%
- inhibition (PRKCZ (human); compound 1.0 µM): 1.2%
- inhibition ([1]; compound 0.1 µM): 1.1%
- inhibition ([1]; compound 1.0 µM): 2.7%
- inhibition (RPS6KA1 KD1 KD2 (human); compound 0.1 µM): -2.2%
- inhibition (RPS6KA1 KD1 KD2 (human); compound 1.0 µM): 4%
- inhibition (RPS6KA2 KD1 KD2 (human); compound 0.1 µM): -4.2%
- inhibition (RPS6KA2 KD1 KD2 (human); compound 1.0 µM): -2.5%
- inhibition (RPS6KA3 KD1 KD2 (human); compound 0.1 µM): 0.7%
- inhibition (RPS6KA3 KD1 KD2 (human); compound 1.0 µM): 62.5%
- inhibition (RPS6KA5 KD1 KD2 (human); compound 0.1 µM): -5.3%
- inhibition (RPS6KA5 KD1 KD2 (human); compound 1.0 µM): -0.9%
- inhibition (SGK2 (human); compound 0.1 µM): -1.4%
- inhibition (SGK2 (human); compound 1.0 µM): -7.4%
- inhibition (SRC (human); compound 0.1 µM): 1.1%
- inhibition (SRC (human); compound 1.0 µM): 6.6%
- inhibition (STK3 (human); compound 0.1 µM): 1.9%
- inhibition (STK3 (human); compound 1.0 µM): 4.5%
